Tests used:
Set-up in all cases: scale not given: the % may be the effect or the level left
[1] = biological target: T1, Activin receptor type-1B (Homo sapiens) (UniProt P36896); test: Inhibition of human ALK4 assessed as enzyme activity at 1 uM using casein as substrate preincubated for 20 mins followed by [gamma-33P]-ATP addition and measured after 120 mins by radiometric Hot-SpotSM Kinase assay relative to control
T1 sequence (whole entry): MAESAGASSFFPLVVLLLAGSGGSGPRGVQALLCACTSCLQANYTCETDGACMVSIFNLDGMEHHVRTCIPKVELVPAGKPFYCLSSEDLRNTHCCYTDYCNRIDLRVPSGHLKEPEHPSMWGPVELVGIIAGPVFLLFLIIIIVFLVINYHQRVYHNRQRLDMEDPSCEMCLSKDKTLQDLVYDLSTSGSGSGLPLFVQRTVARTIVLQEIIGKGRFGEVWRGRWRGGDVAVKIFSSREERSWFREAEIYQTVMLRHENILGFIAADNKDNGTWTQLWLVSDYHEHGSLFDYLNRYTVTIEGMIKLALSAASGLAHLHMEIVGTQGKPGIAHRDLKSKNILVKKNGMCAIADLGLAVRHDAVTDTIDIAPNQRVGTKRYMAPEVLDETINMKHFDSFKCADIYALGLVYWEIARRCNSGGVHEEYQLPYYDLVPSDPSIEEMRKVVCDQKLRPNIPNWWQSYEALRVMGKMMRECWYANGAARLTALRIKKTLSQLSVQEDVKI

[2] = biological target: T2, Serine/threonine-protein kinase Chk1 (Homo sapiens) (UniProt O14757); test: Inhibition of human CHK1 assessed as enzyme activity at 1 uM using KKKVSRSGLYRSPSMPENLNRPR as substrate preincubated for 20 mins followed by [gamma-33P]-ATP addition and measured after 120 mins by radiometric Hot-SpotSM Kinase assay relative to control
T2 sequence (whole entry): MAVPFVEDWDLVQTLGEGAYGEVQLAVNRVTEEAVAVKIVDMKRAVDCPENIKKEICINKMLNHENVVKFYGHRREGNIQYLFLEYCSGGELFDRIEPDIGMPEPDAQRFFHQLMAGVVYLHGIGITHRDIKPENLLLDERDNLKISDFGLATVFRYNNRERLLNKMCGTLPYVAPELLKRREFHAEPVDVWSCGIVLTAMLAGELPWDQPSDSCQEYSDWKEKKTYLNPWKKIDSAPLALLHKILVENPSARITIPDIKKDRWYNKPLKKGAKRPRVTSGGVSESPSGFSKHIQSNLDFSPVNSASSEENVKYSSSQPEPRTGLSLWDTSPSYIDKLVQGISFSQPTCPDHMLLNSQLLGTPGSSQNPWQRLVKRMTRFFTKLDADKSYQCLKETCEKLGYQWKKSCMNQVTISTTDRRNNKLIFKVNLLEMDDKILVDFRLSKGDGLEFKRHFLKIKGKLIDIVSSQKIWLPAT

[3] = biological target: T3, Serine/threonine-protein kinase Nek1 (Homo sapiens) (UniProt Q96PY6); test: Inhibition of human NEK1 assessed as enzyme activity at 1 uM using myelin basic protein as substrate preincubated for 20 mins followed by [gamma-33P]-ATP addition and measured after 120 mins by radiometric Hot-SpotSM Kinase assay relative to control
T3 sequence (whole entry): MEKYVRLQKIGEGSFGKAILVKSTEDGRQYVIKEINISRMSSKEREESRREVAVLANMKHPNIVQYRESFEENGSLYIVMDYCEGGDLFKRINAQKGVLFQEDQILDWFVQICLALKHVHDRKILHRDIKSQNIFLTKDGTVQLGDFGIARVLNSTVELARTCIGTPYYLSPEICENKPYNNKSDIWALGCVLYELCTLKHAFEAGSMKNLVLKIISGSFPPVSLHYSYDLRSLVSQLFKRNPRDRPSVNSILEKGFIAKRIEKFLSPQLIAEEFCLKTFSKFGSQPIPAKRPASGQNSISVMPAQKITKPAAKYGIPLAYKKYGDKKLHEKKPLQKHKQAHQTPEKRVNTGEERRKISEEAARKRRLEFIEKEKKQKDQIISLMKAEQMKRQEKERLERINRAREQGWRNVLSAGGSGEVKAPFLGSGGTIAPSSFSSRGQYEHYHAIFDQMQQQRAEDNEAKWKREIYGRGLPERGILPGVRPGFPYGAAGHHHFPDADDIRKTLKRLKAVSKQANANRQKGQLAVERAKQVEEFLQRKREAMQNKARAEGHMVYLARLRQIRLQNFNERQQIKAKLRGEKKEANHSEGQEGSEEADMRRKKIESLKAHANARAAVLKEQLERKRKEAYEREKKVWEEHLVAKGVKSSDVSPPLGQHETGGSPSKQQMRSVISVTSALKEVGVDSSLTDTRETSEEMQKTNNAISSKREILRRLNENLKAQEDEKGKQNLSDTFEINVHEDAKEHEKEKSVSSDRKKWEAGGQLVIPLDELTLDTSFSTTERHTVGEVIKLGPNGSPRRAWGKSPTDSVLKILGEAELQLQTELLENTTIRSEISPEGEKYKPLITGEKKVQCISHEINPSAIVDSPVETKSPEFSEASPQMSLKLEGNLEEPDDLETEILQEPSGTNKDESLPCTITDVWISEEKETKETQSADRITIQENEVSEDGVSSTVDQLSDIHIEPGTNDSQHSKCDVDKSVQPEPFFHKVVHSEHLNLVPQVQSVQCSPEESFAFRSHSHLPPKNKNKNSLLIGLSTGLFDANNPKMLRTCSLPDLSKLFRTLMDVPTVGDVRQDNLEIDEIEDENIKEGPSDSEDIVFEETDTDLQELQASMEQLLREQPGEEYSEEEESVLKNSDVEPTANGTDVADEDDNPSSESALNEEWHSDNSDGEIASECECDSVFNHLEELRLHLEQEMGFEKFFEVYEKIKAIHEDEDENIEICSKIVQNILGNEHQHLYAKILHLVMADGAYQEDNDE

[4] = biological target: Protein kinase C eta type (Homo sapiens) (UniProt P24723); test: Inhibition of human PKCeta assessed as enzyme activity at 1 uM using ERMRPRKRQGSVRRRV as substrate preincubated for 20 mins followed by [gamma-33P]-ATP addition and measured after 120 mins by radiometric Hot-SpotSM Kinase assay relative to control
[5] = biological target: STE20/SPS1-related proline-alanine-rich protein kinase (Homo sapiens) (UniProt Q9UEW8); test: Inhibition of human STK39 assessed as enzyme activity at 1 uM using myelin basic protein as substrate preincubated for 20 mins followed by [gamma-33P]-ATP addition and measured after 120 mins by radiometric Hot-SpotSM Kinase assay relative to control

Sequence of Protein kinase C eta type (Homo sapiens) (P24723 whole entry): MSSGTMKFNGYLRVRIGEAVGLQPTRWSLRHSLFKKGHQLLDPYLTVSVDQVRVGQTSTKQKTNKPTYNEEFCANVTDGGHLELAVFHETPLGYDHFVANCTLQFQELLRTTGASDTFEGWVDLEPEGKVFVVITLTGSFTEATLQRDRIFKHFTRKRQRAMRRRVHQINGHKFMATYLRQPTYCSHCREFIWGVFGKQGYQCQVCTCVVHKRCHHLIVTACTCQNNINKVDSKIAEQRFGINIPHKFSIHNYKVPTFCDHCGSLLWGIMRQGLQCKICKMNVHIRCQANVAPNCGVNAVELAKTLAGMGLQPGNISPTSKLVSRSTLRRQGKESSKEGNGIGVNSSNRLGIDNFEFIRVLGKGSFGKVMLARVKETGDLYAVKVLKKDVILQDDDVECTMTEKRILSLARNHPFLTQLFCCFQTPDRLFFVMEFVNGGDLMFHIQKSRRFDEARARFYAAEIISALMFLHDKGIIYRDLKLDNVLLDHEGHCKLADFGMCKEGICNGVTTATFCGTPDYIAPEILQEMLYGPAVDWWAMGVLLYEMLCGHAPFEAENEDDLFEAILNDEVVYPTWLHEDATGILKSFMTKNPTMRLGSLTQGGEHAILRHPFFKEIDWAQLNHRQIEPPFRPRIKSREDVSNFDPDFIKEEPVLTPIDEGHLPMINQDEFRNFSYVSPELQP

CC[C@H](Nc1ncnc2[nH]cnc12)c1nc2cccc(F)c2c(=O)n1-c1ccccc1
Activity [1]: 101% | Activity [2]: 93.2% | Activity [3]: 93.5% | Activity [4]: 88.5% | Activity [5]: 87.1%

CC(C)Oc1ccc(-c2nn([C@@H](C)c3oc4ccc(F)cc4c(=O)c3-c3cccc(F)c3)c3ncnc(N)c23)cc1F [UMBRALISIB]
Activity [1]: 106% | Activity [2]: 95% | Activity [3]: 105% | Activity [4]: 88.4% | Activity [5]: 85.4%

C[C@H](Nc1ncnc2nc[nH]c12)c1cc2cccc(Cl)c2c(=O)n1-c1ccccc1
Activity [1]: 101% | Activity [2]: 94.1% | Activity [3]: 87% | Activity [4]: 87.7% | Activity [5]: 78.1%

— ChEMBL document CHEMBL5715954, “Silencing c-Myc translation as a therapeutic strategy through targeting PI3Kδ and CK1ε in hematological malignancies” (Blood, 2017)
